Measured values: patent US8754093B2, “Co-crystal of etravirine and nicotinamide” (Janssen R&D Ireland, priority 2009, dated 2014)

Assays:
[1] = Dissolution experiments with TMC125/nicotinamide co-crystal (10 mM HCl with 1% TPGS, HPLC); type: physicochemical; conditions: Simulated Gastric Fluid with 1% TPGS, 37° C., 500 rpm
Procedure: This dissolution experiment was focused on looking at the difference between the cocrystal and TMC125 free base both neat and mixed with HPMC E5 Cps.
A: 100 mg co-crystal: 100 mg HPMC E5 Cps (powder blend)
B: 100 mg co-crystal (powder)
C: 78 mg free base: 100 mg HPMC E5 Cps (powder blend)
D: 78 mg free base (powder)
Powders were dispensed to 20 mL vials and in 20 mL of 10 mM HCl with 1% TPGS (d-alpha-tocopheryl polyethylene glycol 1000 succinate) was added to each vial. Each […], filtered through a 0.45 μm nylon filter via centrifugation and the solute was diluted in half and analyzed by HPLC for the concentration of TMC125.

[2] = cited from earlier work
[3] = traditional formulations; cited from earlier work

Cc1cc(C#N)cc(C)c1Oc1nc(Nc2ccc(C#N)cc2)nc(N)c1Br [Neat TMC125 FB, 4-[[6-amino-5-bromo-2-[(4-cyanophenyl)amino]-4-pyrimidinyl]oxy]-3,5-dimethylbenzonitrile]
Concentration of TMC125 ([1]; time 5 min): 22.36 µg/mL | Concentration of TMC125 ([1]; time 10 min): 52.04 µg/mL | Concentration of TMC125 ([1]; time 20 min): 57.03 µg/mL | Concentration of TMC125 ([1]; time 30 min): 58.96 µg/mL | Concentration of TMC125 ([1]; time 45 min): 59.83 µg/mL | Concentration of TMC125 ([1]; time 60 min): 60.10 µg/mL | solubility in aqueous media [2]: very insoluble | bioavailability [3]: very low
